Where two headings read alike, the source gives them in different places.
Columns and labels:
in vitro = conditions: cynomolgus monkey (Macaca fascicularis)
Protocol: To prepare the in vitro co-culture models (EPA), pericytes (2 × 10^4 cells/cm^2) were cultured on the bottom sides of collagen-coated culture inserts (Transwell clear, polyester membrane, 0.4 μm pore size, Corning Costar, NY, USA), and astrocytes (0.5 × 10^5 cell/cm^2) were seeded on the collagen-coated well of a 24-well culture plate. Cells were let to adhere overnight, and endothelial cells (2 × 10^5 cells/cm^2) were seeded on the inside of the inserts (top side of the membranes) and placed in the wells of the 24-well culture plates. An endothelial cell monolayer model (E00) was constructed by a similar method as the co-culture model, except for the procedure of seeding of pericytes and astrocytes. BBB models were maintained in RBEC medium supplemented with 550 nM hydrocortisone.
The permeability of the same 10 drugs was measured in the apical-to-basolateral (A-B) and basolateral-to-apical (B-A) directions as described in our previous study. All test compounds were dissolved in DMSO to yield a 10 mM solution, which was further diluted to 10 μM in HBSS-Hepes buffer (Hank’s Buffered Salt Solution containing 25 mM Hepes). […] The concentration of test compounds in the samples was determined by a Merck–Hitachi LaChrom HPLC with UV–VIS or a fluorescence detector (Merck, Darmstadt, Germany). […] Apparent permeability coefficients (Papp) were calculated using the following equation: Papp = (dQ/dT)/(A × C0), where dQ/dT is the cumulative amount in the receiver compartment versus time, A is the surface of the filter, and C0 is the initial concentration of the tracer in the luminal compartments.

[1] = design: method as in PMID 22906709; conditions: cited from earlier work
[2] = system: rat BBB co-culture model (EPA); design: method as in PMID 22906709; conditions: cited from earlier work; for Rat BBB Papp A-B: apical to basal; for Rat BBB Papp B-A: basal to apical
[3] = system: receptors for advanced glycation end-product (RAGE); conditions: cited from earlier work
[4] = system: primary triple co-culture monkey BBB model; conditions: cited from earlier work
SLC35F2 = system: SLC35F2; design: method as in PMID 33144341; conditions: monkey BBB kit; famotidine as inhibitor; cited from earlier work
[5] = Sodium fluorescein permeability (Pe) of monkey BBB mono- and co-culture models; assay type: in vitro ADME; conditions: cynomolgus monkey (Macaca fascicularis), 10 μg/mL Na-F, read-out: endothelial permeability coefficient for sodium fluorescein (Na-F Pe)
Protocol: (§1) To evaluate the barrier function in different BBB models, transendothelial electrical resistance (TEER) was measured by an EVOM resistance meter and Endohm chamber (World Precision Instruments, Sarasota, FL, USA). The resistance values of blank inserts (background resistance) were subtracted from values of inserts with cells. TEER data are shown as Ω × cm^2. The permeability of sodium fluorescein (Na-F, MW: 376 Da) was also determined, and used as an index of paracellular transport. Cell culture inserts were transferred to 24-well plates containing 0.9 mL assay buffer (Dulbecco’s PBS (D-PBS) containing 0.9 mM CaCl2, 0.5 mM MgCl2, 4.5 g/L glucose, and 10 mM HEPES; pH 7.4). The luminal culture medium was replaced with 0.2 mL of assay buffer containing 10 μg/mL Na-F. Fifteen or 45 min after Na-F addition, the inserts were transferred to new wells containing the assay buffer. […] Transendothelial permeability coefficient (Pe) was calculated as previously described.

[6] = system: P-glycoprotein (P-gp, ABCB1); assay: Bidirectional transport of rhodamine 123 across MBECs; conditions: 5 μM R123, 1 h, 37 °C; MBEC
Protocol: For bidirectional transport assay, the flux of 5 μM R123 in assay buffer was measured for 1 h at 37 °C in the luminal-to-abluminal and in the opposite abluminal-to-luminal directions. After measuring the R123 content in samples collected from both compartments, Pe values were calculated.

[7] = system: monkey co-culture BBB model (EPA); assay: Effect of TGF-β1 on barrier integrity (TEER) in monkey co-culture BBB model (EPA); assay type: cell-based, Macaca fascicularis; conditions: TGF-β1 1 ng/mL, 3, 6, and 12-h time points
Protocol: as §1

COc1ccc2c(c1)c(CC(=O)O)c(C)n2C(=O)c1ccc(Cl)cc1 [Indomethacin]
Papp A→B at 10 μM (in vitro): 32.7 ×10⁻⁶ cm/s
Papp B→A at 10 μM (in vitro): 39.1 ×10⁻⁶ cm/s
efflux ratio at 10 μM (in vitro): 1.2
Mouse In Vivo Papp [1]: 0.13 ×10⁻⁶ cm/s
Rat BBB Papp A-B [2]: 33.63 ×10⁻⁶ cm/s
Rat BBB Papp B-A [2]: 44.07 ×10⁻⁶ cm/s
Rat BBB Efflux Ratio [2]: 1.31

oxytocin
reduction of blood-to-brain direction transport when RAGE was silenced by shRNA [3]: approximately 70%

Cc1ccnc2c1NC(=O)c1cccnc1N2C1CC1 [nevirapine]
mean Papp across the monkey BBB model [4]: 3.2e-05 cm/s

O=c1c(O)c(-c2cc(O)c(O)c(O)c2)oc2cc(O)cc(O)c12 [myricetin]
Papp in the monkey BBB model [4]: 2.5 ×10⁻⁶ cm/s

COCCn1c2c([n+](Cc3cnccn3)c1C)C(=O)c1ccccc1C2=O [YM155, sepantronium bromide]
BBB permeability and intraendothelial accumulation (SLC35F2 substrate transport) (SLC35F2): famotidine-inhibitable BBB permeability and intraendothelial accumulation

O=C1Nc2ccc(Cl)cc2[C@@](C#CC2CC2)(C(F)(F)F)O1 [efavirenz]
mean Papp across the monkey BBB model [4]: 1.44e-05 cm/s

Cc1nnc(C(=O)NC(C)(C)c2nc(C(=O)NCc3ccc(F)cc3)c(O)c(=O)n2C)o1 [raltegravir]
mean Papp across the monkey BBB model [4]: 1.02e-05 cm/s

CN(C)C(=O)C(CCN1CCC(O)(c2ccc(Cl)cc2)CC1)(c1ccccc1)c1ccccc1 [Loperamide]
Mouse In Vivo Papp [1]: 1.05 ×10⁻⁶ cm/s
Rat BBB Papp A-B [2]: 15.57 ×10⁻⁶ cm/s
Rat BBB Papp B-A [2]: 21.76 ×10⁻⁶ cm/s

Cn1c(=O)c2c(ncn2C)n(C)c1=O [Caffeine]
Papp A→B at 10 μM (in vitro): 60.5 ×10⁻⁶ cm/s
Papp B→A at 10 μM (in vitro): 65.2 ×10⁻⁶ cm/s
Mouse In Vivo Papp [1]: 11.11 ×10⁻⁶ cm/s
Rat BBB Papp A-B [2]: 64.95 ×10⁻⁶ cm/s
Rat BBB Papp B-A [2]: 59.91 ×10⁻⁶ cm/s
mean Papp across the monkey BBB model [4]: 71.7 ± 3.2 × 10^−6 cm/s

C=C[C@H]1C[N@@]2CC[C@H]1C[C@@H]2[C@@H](O)c1ccnc2ccc(OC)cc12 [Quinidine]
Mouse In Vivo Papp [1]: 1.69 ×10⁻⁶ cm/s
Rat BBB Papp A-B [2]: 6.28 ×10⁻⁶ cm/s
Rat BBB Papp B-A [2]: 12.11 ×10⁻⁶ cm/s

O=C1OC2(c3ccc(O)cc3Oc3cc(O)ccc32)c2ccccc21 [Na-F, sodium fluorescein]
Papp at 10 μg/mL ([5]; pH 7.4, MBEC co-culture with rat pericytes (EP0)): 0.74 ± 0.06 ×10⁻⁶ cm/s
Papp at 10 μg/mL ([5]; pH 7.4, MBEC co-culture with rat pericytes and astrocytes (EPA)): 0.69 ± 0.07 ×10⁻⁶ cm/s
Papp at 10 μg/mL ([5]; pH 7.4, monolayer MBEC model (E00)): 2.44 ± 0.04 ×10⁻⁶ cm/s

CC[C@]1(O)C[C@@H]2CN(CCc3c([nH]c4ccccc34)[C@@](C(=O)OC)(c3cc4c(cc3OC)N(C)[C@H]3[C@@](O)(C(=O)OC)[C@H](OC(C)=O)[C@]5(CC)C=CCN6CC[C@]43[C@@H]65)C2)C1 [Vinblastine]
Papp A→B at 10 μM (in vitro): 1.47 ×10⁻⁶ cm/s
Papp B→A at 10 μM (in vitro): 2.14 ×10⁻⁶ cm/s
efflux ratio at 10 μM (in vitro): 1.46
Mouse In Vivo Papp [1]: 1.43 ×10⁻⁶ cm/s
Rat BBB Papp A-B [2]: 2.42 ×10⁻⁶ cm/s
Rat BBB Papp B-A [2]: 1.39 ×10⁻⁶ cm/s
Rat BBB Efflux Ratio [2]: 0.69

CN/C(=N/CCSCc1nc[nH]c1C)NC#N [Cimetidine]
Papp A→B at 10 μM (in vitro): 3 ×10⁻⁶ cm/s
Papp B→A at 10 μM (in vitro): 2.88 ×10⁻⁶ cm/s
efflux ratio at 10 μM (in vitro): 0.97
Mouse In Vivo Papp [1]: 0.2 ×10⁻⁶ cm/s
Rat BBB Papp A-B [2]: 3.86 ×10⁻⁶ cm/s
Rat BBB Papp B-A [2]: 2.8 ×10⁻⁶ cm/s
Rat BBB Efflux Ratio [2]: 0.75

COC(=O)c1ccccc1-c1c2ccc(=N)cc-2oc2cc(N)ccc12 [R123, rhodamine 123]
transport of R123 from brain side to blood side (B-A) versus opposite direction (A-B) [6]: almost four-fold higher

TGF-β1: cytokine transforming growth factor β1
decrease in TEER values compared to medium treated group [7]: ~ 30%

C[C@H]1O[C@@H](O[C@H]2[C@@H](O)C[C@H](O[C@H]3[C@@H](O)C[C@H](O[C@H]4CC[C@@]5(C)[C@H](CC[C@@H]6[C@@H]5C[C@@H](O)[C@]5(C)[C@@H](C7=CC(=O)OC7)CC[C@]65O)C4)O[C@@H]3C)O[C@@H]2C)C[C@H](O)[C@@H]1O [Digoxin]
Mouse In Vivo Papp [1]: 0.1 ×10⁻⁶ cm/s

COc1cc2c(cc1Cc1cccc(Cl)c1F)c(=O)c(C(=O)O)cn2[C@H](CO)C(C)C [elvitegravir]
mean Papp across the monkey BBB model [4]: 1.86e-05 cm/s
